Experimental data reported in publication PMC10093845, “Inhibitory Activities of Samples on Tyrosinases Were Affected by Enzyme Species and Sample Addition Methods” (International Journal of Molecular Sciences, 2023).
Like-named read-outs stand apart in the source and are kept apart here.

Legend:
Cell viability (CCK-8) = type: cell-based, murine; settings: mouse, B16F10 melanoma cells, 48 h
Experimental: (§1) Referring to our previous methods. […] Measurement of cell viability was determined according to our previous procedure. In brief, cells were seeded into 96-well plates at a density of 1 × 10^4 cells/well and incubated for 24 h. Then, the culture medium was replaced with complete medium containing compound and further incubated at 37 °C for 48 h. After rinsing once with D-PBS, 100 µL DMEM containing 10% CCK-8 was added to each well. Followed by another 1 h incubation, the absorbance at 450 nm was measured. […] The cell viability was expressed as a percentage of the control.

B16F10 cells [1] = settings: previous studies; cited from earlier work
BTYR mRNA = assay: qPCR analysis of TYR gene; type: cell-based, murine; settings: 100 μg/mL, 24 h, α-MSH stimulated
Experimental: Measurement of mRNA expression of TYR was determined according to our previous procedure. […] Total RNAs prepared were followed and qPCR analysis of TYR were carried on with β-actin as an internal control.

[2] = test system: ATYR (crude TYR extracted from apple); assay: ATYR directly inhibitory activity; type: biochemical; settings: for IC50: sample in direct contact with ATYR, kojic acid inhibits only at high concentration (800–4000 µM)
Experimental: The preparation of fresh-cut apple slices was the same as in Section 4.4. The preparation of crude ATYR was carried out by reference and slightly adjusted. […] Finally, these apple slices were used to extract ATYR. […] After the supernatant was divided, it was quick-frozen with liquid nitrogen, and then stored in the refrigerator at −80 °C. The supernatant was used for ATYR activity analysis. In a reaction system of 200 μL, 40 µL ATYR was mixed with 40 µL corresponding compound in 96-well plates. After incubated at 25 °C for 10 min, L-DOPA (120 µL, 8 mM) was added to each well as a substrate. Once the substrate was added in reaction system, the formation of dopachrome was immediately measured at 475 nm for 30 min at 1 min intervals. […] The group setting and the calculation of ATYR directly inhibitory activity were the same as in Section 4.2.

B16F10 cells [3] = assay: Intracellular melanin content; type: cell-based, murine; settings: 100 μg/mL, α-MSH stimulated B16F10 cells, 48 h
Experimental: Measurement of intracellular melanin content was determined according to our previous procedure. Briefly, Cells were cultured by complete medium containing compounds for 48 h. Then, intracellular melanin was extracted by 1 M NaOH containing 10% DMSO. The absorbance of the dissolved melanin was obtained using a microplate reader at 405 nm. The melanin content of each treatment group was calculated with the negative control group as reference.

[4] = test system: ATYR (crude TYR extracted from apple); assay: ATYR indirectly inhibitory activity (apple slices soaked, then enzyme extracted); settings: apple slices soaked in 1 mM for 10 min; water 0 ± 4% as negative control; negative = promotion
Experimental: The preparation of fresh-cut apple slices was the same as in Section 4.4. The preparation of crude ATYR was carried out by reference and slightly adjusted. […] Finally, these apple slices were used to extract ATYR. […] After the supernatant was divided, it was quick-frozen with liquid nitrogen, and then stored in the refrigerator at −80 °C. The supernatant was used for ATYR activity analysis. Apple slices, immersing in various test solutions for 10 min, were used to extract crude ATYR solution. […] The control group containing only ATYR (blank control and sample control) was set for synchronous detection to exclude background interference. With negative control as the reference, the indirectly inhibitory activity of ATYR was calculated in the same way as in Section 4.2.

MTYR = settings: cited from earlier work
B16F10 cells [5] = assay: Cell viability (CCK-8); type: cell-based, murine
Experimental: as §1

[6] = molecular target: T1, BTYR (intracellular TYR of B16F10 cells) (Mus musculus, UniProt P11344); assay: BTYR indirectly inhibitory activity in cells cultured by compounds; type: cell-based, murine
T1 construct: The lysates, called BTYR, were centrifuged at 12,000 rpm for 10 min at 4 °C; endogenous in cells; host or cells: B16F10 murine melanoma cells
T1 sequence (P11344 19-533): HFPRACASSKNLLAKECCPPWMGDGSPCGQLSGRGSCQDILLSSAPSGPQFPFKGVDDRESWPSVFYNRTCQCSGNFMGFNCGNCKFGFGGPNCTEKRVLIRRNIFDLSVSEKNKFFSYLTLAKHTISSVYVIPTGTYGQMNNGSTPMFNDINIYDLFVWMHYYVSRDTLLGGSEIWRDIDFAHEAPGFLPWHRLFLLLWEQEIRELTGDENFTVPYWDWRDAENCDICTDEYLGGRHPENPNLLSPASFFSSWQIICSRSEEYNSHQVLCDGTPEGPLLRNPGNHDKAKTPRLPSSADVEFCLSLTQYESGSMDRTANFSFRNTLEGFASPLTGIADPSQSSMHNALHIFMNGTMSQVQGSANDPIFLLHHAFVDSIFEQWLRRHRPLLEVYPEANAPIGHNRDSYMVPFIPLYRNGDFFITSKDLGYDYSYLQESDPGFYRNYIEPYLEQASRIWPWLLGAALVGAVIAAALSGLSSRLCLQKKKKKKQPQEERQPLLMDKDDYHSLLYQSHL
Experimental: Referring to our previous methods. In short, B16F10 murine melanoma cells from Stem Cell Bank (Chinese Academy of Sciences, Shanghai, China) were cultured in DMEM supplemented with 10% FBS in a humidified atmosphere of 5% CO2 at 37 °C.
The BTYR indirectly inhibitory activity was assayed according to our previous procedure with slight modification. Cells were cultured by complete medium containing compounds for 48 h and lysed by 120 μL of lysis buffer to obtain crude BTYR extract. […] The molarities of EGCG were 25, 50, 100, 125, 150, 175 and 200 μM. The treatment group without samples was negative control.
In a reaction system of 100 μL, 20 μL of BTYR was mixed with 60 μL of 8 mM L-DOPA (the remaining volume was supplemented with 20 mM pH 6.8 PBS), and immediately placed at 475 nm for dynamic detection for 30 min. The absorbance was measured once per minute. The control group containing only BTYR (blank control and sample control) was set for synchronous detection to exclude background interference.
With negative control as the reference, the indirectly inhibitory activity of BTYR was calculated in the same way as in Section 4.2.

[7] = molecular target: T2, BTYR (TYR crude enzyme extract from B16F10 cells) (Mus musculus, UniProt P11344); assay: BTYR directly inhibitory activity (TYR extraction followed by sample treatment, non-cellular system); type: biochemical, murine
T2 construct: The lysates, called BTYR, were centrifuged at 12,000 rpm for 10 min at 4 °C; endogenous in cells; host or cells: B16F10 murine melanoma cells
T2 sequence (P11344 19-533): T1 sequence (P11344 19-533)
Experimental: B16F10 cells at the exponential phase in 10 cm^2 cell culture dish were washed with D-PBS two times and incubated for 30 min at −20 °C in 1.16 mL of lysis buffer. The lysates, called BTYR, were centrifuged at 12,000 rpm for 10 min at 4 °C.
The reaction system in 96-well plate was 100 μL. 20 μL of BTYR was mixed with 20 μL compounds and incubated at 25 °C for 10 min, then 60 μL of 8 mM L-DOPA was added to start the reaction. A Synergy H1 microplate reader (BioTek Instruments, Inc., Winooski, VT, USA) was used to dynamically monitor the optical densities at 475 nm. Absorbance was measured every minute and sustained 30 min. The initial velocity (v0) of each reaction was represented by the slope of the initial linear range of the progress curve, and was used to calculate the relative enzyme activity of each treatment [16].
BTYR directly inhibitory activity compared to negative control could be expressed by following formula [16]. Δsample = sample − sample control, Δcontrol = negative control − blank control(1) kΔsample = (Δsamplet1 − Δsamplet0)/(t1 − t0), kΔcontrol = (Δcontrolt1 − Δcontrolt0)/(t1 − t0)(2) (3) BTYR direct inhibition %=1−kΔsample/kΔcontrol×100 […]

MTYR (mushroom TYR) [8] = molecular target: T3, MTYR (mushroom TYR) (Agaricus bisporus, UniProt C7FF04); assay: Kinetic analysis of MTYR (Lineweaver-Burk); type: biochemical; settings: L-DOPA substrate
Experimental: The experimental method was the same as Section 4.8, except for the substrate concentration and compound concentration. A series of experiments were performed to determine the type of inhibition.
The molarities of L-DOPA were 0.0625, 0.25, 1, 4 and 8 mM. […] The Km and Vmax of MTYR were determined by the Michaelis–Menten equation. The Lineweaver–Burk plot was used to display the data. Secondary replot of Lineweaver–Burk plot or intercept was used to display inhibition constant (Ki) and α.

MTYR (mushroom TYR) [9] = molecular target: T3, MTYR (mushroom TYR); assay: MTYR directly inhibitory activity; type: biochemical
Experimental: The MTYR directly inhibitory activity was assayed according to our previous procedure. Briefly, the reaction media was 200 µL in 96-well plates. MTYR (40 µL, 30 U/mL) in PBS (20 mM, pH 6.8) was incubated with the corresponding compound (40 µL) at 25 °C for 10 min. Then, L-DOPA ([…], 8 mM) was added to each well as a substrate. The other steps and the calculation of MTYR directly inhibitory activity were the same as above method in Section 4.2.

HTYR = settings: cited from earlier work
HMV-II = test system: HMV-II; design: method as in PMID 15056856; settings: concentration lower than 1 mM; cited from earlier work

T3 sequence (C7FF04 1-392): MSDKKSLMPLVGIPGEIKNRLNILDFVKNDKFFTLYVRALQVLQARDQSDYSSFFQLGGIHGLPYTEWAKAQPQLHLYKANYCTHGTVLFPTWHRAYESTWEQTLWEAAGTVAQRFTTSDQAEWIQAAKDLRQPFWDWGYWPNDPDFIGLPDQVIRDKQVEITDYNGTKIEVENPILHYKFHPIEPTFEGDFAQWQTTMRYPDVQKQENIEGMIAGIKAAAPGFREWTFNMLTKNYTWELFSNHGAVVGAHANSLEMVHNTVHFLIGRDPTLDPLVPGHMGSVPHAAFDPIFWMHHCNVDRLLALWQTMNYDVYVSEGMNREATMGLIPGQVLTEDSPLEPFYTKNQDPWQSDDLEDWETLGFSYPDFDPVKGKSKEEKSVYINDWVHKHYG
T3 sequence (G1K3P4 1-150 partner): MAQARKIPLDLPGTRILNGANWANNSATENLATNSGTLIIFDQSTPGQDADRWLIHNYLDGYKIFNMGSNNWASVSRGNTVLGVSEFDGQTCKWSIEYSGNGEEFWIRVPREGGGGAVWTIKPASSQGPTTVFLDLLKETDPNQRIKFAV

O=c1cc(CO)occ1O [kojic acid]
viability at 48 h, 25 µM (Cell viability (CCK-8); 25 µM): 100 ± 4% | viability at 48 h, 50 µM (Cell viability (CCK-8); 50 µM): 101 ± 2% | viability at 48 h, 100 µM (Cell viability (CCK-8); 100 µM): 95 ± 1% | viability at 48 h, 200 µM (Cell viability (CCK-8); 200 µM): 90 ± 3% | viability at 48 h, 400 µM (Cell viability (CCK-8); 400 µM): 90 ± 3% | viability at 48 h, 600 µM (Cell viability (CCK-8); 600 µM): 96 ± 5% | viability at 48 h, 800 µM (Cell viability (CCK-8); 800 µM): 99 ± 4% | concentration significantly reducing melanin content of B16F10 cells in a dose-dependent manner (B16F10 cells [1]): 175 to 700 µM | mRNA expression of BTYR in cells (BTYR mRNA): significantly inhibit | EC50 ([2]; low concentration (12.5–400 µM) of kojic acid, read-out: EC50, promotion of ATYR activity): 0.096 ± 0.004 mM | IC50 [2]: 2.11 ± 0.02 mM | intracellular melanin content (B16F10 cells [3]): significantly reduce | ATYR indirectly inhibitory activity [4]: −71 ± 4%

OC[C@H]1O[C@@H](Oc2ccc(O)cc2)[C@H](O)[C@@H](O)[C@@H]1O [β-arbutin]
IC50 (MTYR; read-out: IC50, diphenolase activity of MTYR): 8.4 mM | Cell Viability (%) (B16F10 cells [5]; 25 µM): 108 ± 2% | Cell Viability (%) (B16F10 cells [5]; 50 µM): 115 ± 4% | Cell Viability (%) (B16F10 cells [5]; 100 µM): 125 ± 2% | Cell Viability (%) (B16F10 cells [5]; 200 µM): 138 ± 3% | Cell Viability (%) (B16F10 cells [5]; 400 µM): 171 ± 1% | Cell Viability (%) (B16F10 cells [5]; 600 µM): 195 ± 3% | Cell Viability (%) (B16F10 cells [5]; 800 µM): 206 ± 0% | Cell Viability (%) (B16F10 cells [5]; 1000 µM): 211 ± 1% | Cell Viability (%) (B16F10 cells [5]; 1200 µM): 222 ± 2% | concentration significantly reducing melanin content of B16F10 cells in a dose-dependent manner (B16F10 cells [1]): 43.8 to 700 µM | promotion of ATYR activity (max) ([2]; 0.025–320 mM β-arbutin, direct): ≤ 21% | ATYR indirectly inhibitory activity [4]: 80 ± 0%

O=C(O[C@@H]1Cc2c(O)cc(O)cc2O[C@@H]1c1cc(O)c(O)c(O)c1)c1cc(O)c(O)c(O)c1 [EGCG, Epigallocatechin gallate]
intracellular BTYR activity ([6]; 100 μg/mL, α-MSH stimulated B16F10 cells, 48 h): inhibit intracellular BTYR activity | IC50 ([6]; cells cultured with compound 48 h, then TYR extracted): 0.195 ± 0.003 mM | Cell Viability (%) (B16F10 cells [5]; 25 µM, 48 h): 100 ± 2% | Cell Viability (%) (B16F10 cells [5]; 50 µM, 48 h): 98 ± 2% | Cell Viability (%) (B16F10 cells [5]; 100 µM, 48 h): 95 ± 6% | Cell Viability (%) (B16F10 cells [5]; 200 µM, 48 h): 106 ± 1% | Cell Viability (%) (B16F10 cells [5]; 400 µM, 48 h): 66 ± 4% | Cell Viability (%) (B16F10 cells [5]; 600 µM, 48 h): 4 ± 0% | Cell Viability (%) (B16F10 cells [5]; 800 µM, 48 h): 2 ± 1% | Cell Viability (%) (B16F10 cells [5]; 1000 µM, 48 h): 1 ± 1% | Cell Viability (%) (B16F10 cells [5]; 1200 µM, 48 h): −1 ± 0% | catalytic activity of BTYR in non-cellular system ([7]; 100 μg/mL): could not | BTYR direct inhibition rate ([7]; 0.025–2.4 mM EGCG): < 50% | Inhibition type (MTYR (mushroom TYR) [8]): competitive | Km (change with increasing compound molarity) (MTYR (mushroom TYR) [8]): increasing | Vmax (change with increasing compound molarity) (MTYR (mushroom TYR) [8]): constant | Ki (MTYR (mushroom TYR) [8]; replot of Lineweaver–Burk slopes): 0.17 mM | concentration significantly reducing melanin content of B16F10 cells in a dose-dependent manner (B16F10 cells [1]): 55 to 218 µM | IC50 (MTYR (mushroom TYR) [9]; L-DOPA substrate): 1.42 ± 0.061 mM | MTYR directly inhibitory activity relative to kojic acid (MTYR (mushroom TYR) [9]; ratio of IC50): 1/15 | mRNA expression of BTYR in cells (BTYR mRNA): significantly inhibit | IC50 [2]: 1.77 ± 0.02 mM | intracellular melanin content (B16F10 cells [3]): significantly reduce | ATYR indirectly inhibitory activity [4]: −7 ± 7%

Oc1ccc(O)cc1 [hydroquinone]
IC50 (MTYR; read-out: IC50 on MTYR): 0.0011 mM | activity on HTYR relative to that on MTYR (HTYR): 1/4000 | IC50 (HTYR; read-out: IC50 on HTYR): 4.4 mM

OC[C@H]1O[C@H](Oc2ccc(O)cc2)[C@H](O)[C@@H](O)[C@@H]1O [α-arbutin]
inhibition of the diphenolase activity of MTYR (MTYR): could not inhibit | effect on growth of HMV-II (HMV-II): did not inhibit the growth
